The conditions of data set [1]: for mass density: 293 K, 101.33 kPa, Flotation in CCl4 and Heptane; for Triple point temperature: DTA.
Data set [2] is described as follows: Molar enthalpy of transition or fusion. Conditions: DSC.

Each structure is given as a SMILES string. Numbers after ± are expanded uncertainties.

By mass density is commonly meant mass per unit of volume. For `CCCCCCCCCC(=O)[O-].[Li+]` [lithium decanoate], in data set [1] (Crystal 2), the mass density worked out at 1080 ± 40 kg/m3. In addition, in data set [1] (Crystal 1), the Triple point temperature is given as 516.6 ± 1.3 K. Further, the “Molar enthalpy of transition or fusion” value in data set [2] (Crystal 1) stood at 5.92 ± 1.43 kcal/mol.

Regarding `CCCCCCCCCCCC(=O)[O-].[Li+]` [lithium dodecanoate], the mass density in data set [1] (Crystal 2) amounted to 1060 ± 40 kg/m3. Also, the Triple point temperature in data set [1] (Crystal 1) amounted to 501.95 ± 1.8 K. Further, the “Molar enthalpy of transition or fusion” value in data set [2] (Crystal 1) worked out at 6.26 ± 1.36 kcal/mol.

Take `CCCCCCCCCCCCCCCCC(=O)[O-].[Li+]` [lithium heptadecanoate]: the mass density in data set [1] (Crystal 2) is on record as 1090 ± 40 kg/m3. Besides, in data set [1] (Crystal 1), the Triple point temperature is reported as 498.85 ± 0.59 K. The “Molar enthalpy of transition or fusion” value in data set [2] (Crystal 1) was 3.2 ± 0.502 kcal/mol.

`CCCCCCCCCCCCCCCC(=O)[O-].[Li+]` [lithium hexadecanoate]: the mass density in data set [1] (Crystal 2) stood at 1050 ± 40 kg/m3. Besides, the Triple point temperature in data set [1] (Crystal 1) turned out to be 500.89 ± 2.8 K. The “Molar enthalpy of transition or fusion” value in data set [2] (Crystal 1) amounted to 3.77 ± 1.2 kcal/mol.

As for `CCCCCCCCCCCCCCCCCCC(=O)[O-].[Li+]` [lithium nonadecanoate], in data set [1] (Crystal 2), the mass density is reported as 1080 ± 40 kg/m3. Further, the Triple point temperature in data set [1] (Crystal 1) was 496.35 ± 1.2 K. Also, the “Molar enthalpy of transition or fusion” value in data set [2] (Crystal 1) came out at 3.69 ± 1.17 kcal/mol.

Take `CCCCCCCCC(=O)[O-].[Li+]` [lithium nonanoate]: the mass density in data set [1] (Crystal 2) turned out to be 1120 ± 50 kg/m3. Also, the Triple point temperature in data set [1] (Crystal 1) was found to be 524.1 ± 1.2 K. Besides, the “Molar enthalpy of transition or fusion” value in data set [2] (Crystal 1) was 5.4 ± 0.406 kcal/mol.

`CCCCCCCCCCCCCCCCCC(=O)[O-].[Li+]` [lithium octadecanoate]: the mass density in data set [1] (Crystal 2) is on record as 1040 ± 40 kg/m3. Further, the Triple point temperature in data set [1] (Crystal 1) came to 499.85 ± 0.59 K. Moreover, the “Molar enthalpy of transition or fusion” value in data set [2] (Crystal 1) is 4.05 ± 0.311 kcal/mol.

For `CCCCCCCC(=O)[O-].[Li+]` [lithium octanoate], in data set [1] (Crystal), the mass density was 1080 ± 40 kg/m3 and the Triple point temperature is on record as 536.8 ± 0.7 K. In addition, the “Molar enthalpy of transition or fusion” value in data set [2] (Crystal) was 5.6 ± 0.227 kcal/mol.

In the case of `CCCCCCCCCCCCCCC(=O)[O-].[Li+]` [lithium pentadecanoate], the mass density in data set [1] (Crystal 2) is reported as 1100 ± 40 kg/m3. In data set [1] (Crystal 1), the Triple point temperature stood at 501.25 ± 0.39 K. The “Molar enthalpy of transition or fusion” value in data set [2] (Crystal 1) was found to be 3.86 ± 0.263 kcal/mol.

For the compound `CCCCCCCCCCCCCC(=O)[O-].[Li+]` [lithium tetradecanoate], the mass density in data set [1] (Crystal 2) was found to be 1050 ± 40 kg/m3. Also, the Triple point temperature in data set [1] (Crystal 1) came to 502.4 ± 1 K. Besides, the “Molar enthalpy of transition or fusion” value in data set [2] (Crystal 1) turned out to be 6.06 ± 8.6 kcal/mol.

Consider `CCCCCCCCCCCCC(=O)[O-].[Li+]` [lithium tridecanoate], for which the mass density in data set [1] (Crystal 2) amounted to 1100 ± 40 kg/m3. Also, the Triple point temperature in data set [1] (Crystal 1) amounted to 504.27 ± 0.4 K. Moreover, the “Molar enthalpy of transition or fusion” value in data set [2] (Crystal 1) stood at 3.32 ± 0.55 kcal/mol.

With `CCCCCCCCCCC(=O)[O-].[Li+]` [lithium undecanoate], in data set [1] (Crystal 2), the mass density amounted to 1120 ± 50 kg/m3. For the same compound, in data set [1] (Crystal), the Triple point temperature amounted to 507.27 ± 3.1 K. The “Molar enthalpy of transition or fusion” value in data set [2] (Crystal) came out at 5.85 ± 0.203 kcal/mol.

The values above are taken from the NIST ThermoML archive (doi:10.1016/j.jct.2010.11.011).
